Patent US8497123B2, “Sterol glucoside toxins” (priority 2000, dated 2013)
“Also recorded” adds a separate entry of the source. Like-named read-outs stand apart in the source and are kept apart here.

Columns and labels:
[1] = test system: adult rat neocortex cortical wedges; assay type: cell-based; conditions: for field potential response with AMPA antagonist NBQX: co-application of NBQX or other AMPA antagonists; for field potential response: cortical wedge, Mg2+-free buffer; for field potential response with NMDA receptor antagonists (AP5, kynurenate, MK801): co-application of NMDA antagonist
Method: Cortical ‘wedges’ were prepared as described previously (Shaw et al., 1996). In brief, animals were anesthetized with CO2, decapitated, and a cortical block rapidly removed and placed in cold Krebs-Henseleit buffer containing (in mM): NaCl 124, KCl 3.3, NaHCO3 25, glucose 10, KH2PO4 1.2, CaCl2 2.4, and MgSO4 1.2, bubbled with 5% CO2/95% O2, pH 7.4. The cortical block was sectioned into […] thick coronal slices using a Vibratome (Campden Instruments) and the slices cut into pie shaped wedges in which the white matter formed the narrow edge of the wedge. Each wedge was placed on a net across a grease gap between two fluid filled chambers. The cortical side of the wedge was bathed (at room temperature, approx. 25° C.) in buffer lacking Mg^2+; the callosal portion was bathed in buffer containing Mg^2+ to minimize neural activity. Field potentials were differentially recorded between the two chambers using two Ag/AgCl electrodes. Recordings from up to 6 wedges, each in individual chambers, could be made simultaneously for each experiment. The wedges were continuously perfused on the cortical side with oxygenated, Mg^2+-free buffer using a gravity feed system. Using this system, drugs could be rapidly substituted for control media to examine response characteristics. Wedges typically survived for up to 8 hrs. Responses were recorded on LabView™ after amplification and A/D conversion and the traces were charted in Excel™ for Windows™. Statistical analysis of peak response amplitude was performed by one-way ANOVA using Bonferroni's post test with GraphPad Prism™.

rat cortical slices [2] = conditions: for LDH release (cell death) / LDH release in presence of AP5 / NMDA antagonists: rat cortical slices; for LDH release (cell death): 1 hr at 37° C.; for LDH release in presence of AP5 / NMDA antagonists: plus AP5
Method: Cortical slices were prepared as described above in the glutamate release experiments and placed in tissue culture wells containing Krebs-Heinsleight buffer supplemented with 0.0004% H2O2 and 1 mg/mL glucose. […] For additional comparison and to establish the limits of the method, some slices were freeze-thawed to kill all the cells. Alternatively, some slices were incubated in buffer containing 1.2 mM Mg^2+ in order to diminish spontaneous neural activity. At the end of the 1 hr incubation period, 3 samples (100 μl of buffer, each sample) were taken from each well. LDH assays were performed on these samples using a LDH diagnostic kit (Sigma) following the manufacturer's protocol with some modifications. In brief, 0.5 ml of pyruvate solution was mixed with 0.5 mg pre-weighed NADH. 100 μl of slice medium (free of slices) was added to the mixture and incubated for 30 min at 37° C. 0.5 ml of Sigma coloring reagent (2, 4-dinitrophenylhydrazine in HCl, 2 mg/ml) was added to develop the color and the mixture was incubated for 20 min at room temperature. 5 ml of 0.4 N NaOH were added to each tube. After 5 min, optical density was read at 440 nm. Standard curves were prepared for each assay using different concentrations of pyruvate solution (0-960 units). LDH activity (in International Units) was calculated from the standard curve and normalized by total protein content of each slice as determined by the Lowry protein assay (Peterson, 1979). One International Unit represents the amount of enzyme required to convert 1 μmol of substrate/minute at room temperature.
(§1) Data for LDH and glutamate release experiments were analyzed for significance by one way ANOVA using Dunnett's and Bonferroni's post tests with GraphPad Prism™.

[3] = test system: human cortical astrocytes; assay type: cell-based; conditions: for apoptotic cell loss (cell density, caspase-3): cortical astrocytes on coverslips
Method: FIG. 5: Caspase-3 labeling of human cortical astrocytes in tissue culture. Fetal human telencephalic astrocytes were grown to confluency and then exposed to NMDA, BSSG, cholesterol glucoside (CG), or hydrogen peroxide (H2O2) for various periods. […] At longer time points, the overall numbers of cells in these conditions declined.
We have raised cortical astrocytes on coverslips in culture, exposing them to […], or cholesterol glucoside. Cell loss was measured directly by cell density measurements; apoptosis was measured by staining cells for caspase-3 labeling.

rat cortical slices [4] = assay type: cell-based
Method: Brain slices were taken from cortical blocks in which all subcortical tissue had been removed. […] slices were cut using a modified slice cutter (Van Huizen et al., 1989). Slices were rinsed twice for 5 min in Mg^+2 containing Krebs-Henseleit buffer pH 7.4. Incubation media consisted of 100 μM cold glutamate, 20 μM AP5 and 10 μM DNQX, the latter NMDA or AMPA antagonists, respectively. 10 nM of [^3H]-glutamate was added to the mixture and incubated for 1 hr at 37° C. under in oxygenated atmosphere (O2/CO2=95/5%). Experimental treatments were performed in […] Mg^+2 free buffer placed in tissue culture wells containing different concentrations of MSO or isolated BSSG fractions of cycad flour. Slices were removed at the end of incubation period and the supernatant removed for scintillation counting. The supernatant fractions were placed in scintillation vials containing NEN Formula 989 for a minimum of 12 hrs before being counted in a Beckman LS6000 scintillation counter. Results were normalized to the dpm counts of respective controls.
as §1

Rats = conditions: rats fed MSO
Method: Terminal deoxynucleotidyl transferase (TdT) mediated dUTP-digoxigenin (DIG) nickend labeling (TUNEL) was carried out using an Intergen ApopTag Plus peroxidase kit using the manufacturer's protocol adapted from Gavrieli et al. (1992) with some modifications. […] Briefly, 20 μM thick coronal sections were cut on a cryostat then fixed in 1% paraformaldehyde at room temperature for 2 days. […] After rinsing with PBS, the sections were then exposed to 11 μL/cm^2 working strength of TdT enzyme for 1 hr at 37° C. After washing in PBS, 15 μL/cm^2 of anti-digoxigenin-peroxidase was applied for 30 min in a humidified chamber at room temperature. Colour was developed by adding 125 μl DAB substrate working solution for 6 min. Slides were counter-stained with methyl green for 25 minutes at room temperature. Positive apoptosis controls were generated by pre-incubating sections with DNAase (Sigma).

[5] = fetal human telencephalic astrocytes, vs. control (DMEM)

`Cc1onc(O)c1CC(N)C(=O)O` (stereo not drawn) [AMPA, α-amino-3-hydroxy-5-methyl-4-isoxazolepropionic acid] was tested, and the “field potential response with AMPA antagonist NBQX” value [1] was “blocked”.
With `CC[C@H](CC[C@@H](C)[C@H]1CC[C@H]2[C@@H]3CC=C4C[C@@H](O[C@@H]5O[C@H](CO)[C@@H](O)[C@H](O)[C@H]5O)CC[C@]4(C)[C@H]3CC[C@]12C)C(C)C` [BSSG, beta-sitostrol-beta-D-glucoside (5-cholesten-24b-ethyl-3b-ol-D-glucoside)] the “LDH release (cell death)” value (rat cortical slices [2]) was “qualitative similarity”, the field potential response ([1]; bath application) was “qualitative similarity” and the “apoptotic cell loss (cell density, caspase-3)” value (from here on “apoptotic cell loss”) [3] was “time-dependent apoptotic cell loss”. The caspase-3 positive labeling [3, 5] was “significant caspase-3 positive labeling”.
For `OO` [H2O2, hydrogen peroxide], the “effect on LDH release” value (rat cortical slices [2]) was “did not affect” and the caspase-3 positive labeling ([3]; human) was “significant caspase-3 positive labeling”.
In the case of `CS(=N)(=O)CC[C@H](N)C(=O)O` (stereo partly shown) [MSO, methionine sulfoximine], the “LDH release (cell death)” value (rat cortical slices [2]) is reported as “increased cell death”, the “LDH release in presence of AP5 / NMDA antagonists” value (rat cortical slices [2]) is reported as “blocked” and the “concentration at which depolarizing field potentials begin” value ([1]; bath application, cortical wedge from adult rat) is reported as “approx. 50 μM”. For the same molecule, the field potential response ([1]; bath application) was “depolarizing field potentials”, the “field potential response with AMPA antagonist NBQX” value [1] was “not blocked” and the “field potential response with NMDA receptor antagonists (AP5, kynurenate, MK801)” value [1] was “blocked”. The “calcium dependence of [3H]-glutamate release” value (rat cortical slices [4]; calcium 0 (L) or 2 mM (H)) was “calcium dependent”, the “preloaded [3H]-glutamate release” value (rat cortical slices [4]; rat cortical slices) was “significantly increased” and the “[3H]-glutamate release in presence of AP5” value (rat cortical slices [4]; rat cortical slices, plus AP5) was “blocked”. The “apoptosis in CNS” value (Rats) was “evidence of apoptosis”.
In the case of `CN[C@H](CC(=O)O)C(=O)O` [NMDA, N-methyl-D-aspartate], the “LDH release (cell death)” value (rat cortical slices [2]) is reported as “increased cell death”, the “LDH release in presence of AP5 / NMDA antagonists” value (rat cortical slices [2]) is reported as “attenuated; also recorded: blocked” and the “field potential response with NMDA receptor antagonists (AP5, kynurenate, MK801)” value [1] is reported as “blocked”. For the same molecule, the caspase-3 positive labeling [3, 5] was “significant caspase-3 positive labeling”.
For `C[C@@H]1O[C@@H](O[C@H]2C[C@@H](O)[C@]3(CO)[C@H]4[C@H](O)C[C@]5(C)[C@@H](C6=CC(=O)OC6)CC[C@]5(O)[C@@H]4CC[C@]3(O)C2)[C@H](O)[C@H](O)[C@H]1O` [Ouabain, ouabain], the “LDH release (cell death)” value (rat cortical slices [2]) was “little LDH release” and the field potential response ([1]; bath application) was “small hyperpolarizing responses”.
In the case of `CC(C)CCC[C@@H](C)[C@H]1CC[C@H]2[C@@H]3CC=C4C[C@@H](O[C@@H]5O[C@H](CO)[C@@H](O)[C@H](O)[C@H]5O)CC[C@]4(C)[C@H]3CC[C@]12C` [cholesterol glucoside, 5-cholesten-3b-ol-3b-D-glucoside], the “LDH release (cell death)” value (rat cortical slices [2]) is reported as “qualitatively similar to β-sitosterol-β-D-glucoside”, the field potential response ([1]; bath application) is reported as “qualitatively similar to β-sitosterol-β-D-glucoside” and the “apoptotic cell loss” value [3] is reported as “time-dependent apoptotic cell loss”. The caspase-3 positive labeling [3, 5] was “significant caspase-3 positive labeling”.
With `CC(C)CCC[C@@H](C)[C@H]1CC[C@H]2[C@@H]3CC=C4C[C@@H](O)CC[C@]4(C)[C@H]3CC[C@]12C` [cholesterol] the “LDH release (cell death)” value (rat cortical slices [2]) was “without effect” and the field potential response ([1]; bath application) was “without effect”.
For `CO[C@H]1[C@@H](O)[C@@H](C)O[C@@H](O[C@H]2CC[C@]3(C)[C@H]4CC[C@]5(C)[C@@H](C6=CC(=O)OC6)CC[C@]5(O)[C@@H]4CC[C@]3(O)C2)[C@@H]1O` [emicymarin], the “LDH release (cell death)” value (rat cortical slices [2]) was “little LDH release” and the field potential response ([1]; bath application) was “small hyperpolarizing responses”.
In the case of `C=C(C)[C@H]1CN[C@H](C(=O)O)[C@H]1CC(=O)O` [kainic acid], the “apoptotic cell loss” value [3] is reported as “time-dependent apoptotic cell loss”.
`CC[C@H](CC[C@@H](C)[C@H]1CC[C@H]2[C@@H]3CC=C4C[C@@H](O)CC[C@]4(C)[C@H]3CC[C@]12C)C(C)C` [β-sitosterol agylcone, beta-sitosterol (stigmasta-5-en-3beta-ol)] was tested, and the “LDH release (cell death)” value (rat cortical slices [2]) was “without effect” and the field potential response ([1]; bath application) was “without effect”.
